“And” between values parts separate entries of the source, which are not always exact repeats. Identical values can stand only once. Ends that are not written are not given here.
What was measured:
[1] = target: T1, recombinant SERCA1a (recS1a) (Oryctolagus cuniculus, UniProt P04191); assay: Mg.ATP binding by tryptophan fluorescence; parameters: species or system rabbit (expressed in S. cerevisiae)
T1 construct: BAD (biotin acceptor domain) (C, cleaved yes); made in house; host or cells: Saccharomyces cerevisiae
Procedure: (§1) Intrinsic fluorescence of SERCA1a was measured with a SPEX Fluorolog spectrofluorometer (Horiba/Jobin–Yvon, Longjumeau, France) as described before. Briefly, signals were monitored with excitation and emission wavelength set at 295 and 320 nm, with bandwidths of 2 and 10 nm, respectively. Changes in tryptophan fluorescence were recorded at 20 °C after dilution of protein samples to a final concentration of about 6–7.5 µg/mL into a medium containing 50 mM MOPS-Tris pH 7, 100 mM KCl, 5 mM MgCl2, 20% glycerol (v/v) and 10 mg/mL DDM. In presence of SLN, recS1a and SLN were first mixed together and incubate for 1 h on ice before measurement. In absence of SLN, recS1a is supplemented with 0.07 mg/mL C12E8 to compensate the detergent present with SLN. The Maxchelator program was used for estimating [Ca^2+]free[59] (program available at https://somapp.ucdmc.ucdavis.edu/pharmacology/bers/maxchelator/downloads.htm). The dissociation constant of the Ca.EGTA complex was taken to be 0.4 µM at pH7 and was assumed to be the same in the presence of glycerol.

[2] = target: T1, recombinant SERCA1a (recS1a); assay: Calcium dependence of phosphoenzyme level; assay type: biochemical, rabbit (expressed in S. cerevisiae); settings: absence of pSLN, five independent experiments
Procedure: (§2) Transient formation of the phosphoenzyme intermediate was measured after incubation with [γ^32P]ATP followed by acid quenching, and filtration. For most experiments, 50 µL of enzyme at 10 µg/mL in a buffer containing 50 mM Tes-Tris pH7.5, 1 mM KCl, 5 mM MgCl2, 20% glycerol (w/w) and 0.5 mg/mL DDM, supplemented or not with SLN, was stored on ice. Concentrations of EGTA and calcium are specified in figure legends in order to reach the appropriate [Ca^2+]free and therefore the desired starting state for the ATPase. For kinetics of phosphorylation, we initiate reaction by addition of 2 µM [γ^32P]ATP (5 mCi/µmole), and calcium at 100 µM when specified. Reaction was quenched by addition of 2 mL of cold quenching medium (500 mM TCA + 30 mM H3P0_4) under vigorous mixing, and immediately stored on ice for 20–30 min to improve precipitation, a period of time critical for retention of the precipitate on the filter in presence of detergent. This was followed by filtration on GS filters (Millipore, Saint Quentin-Fallavier, France) and careful rinsing of the filters with diluted quenching medium (50 mM TCA + 3 mM H3P0_4). The amount of radioactivity bound to the filter was estimated by liquid scintillation counting (Perkin Elmer TriCarb Counter). When starting from a calcium-deprived state (Fig. 4C,D), EGTA was added only one minute before starting phosphorylation to limit irreversible inactivation of the solubilized ATPase, although the presence of glycerol helps in protecting the enzyme from irreversible inactivation. For dephosphorylation kinetics, 1 mM “cold” Mg.ATP was added after a 30 s period of phosphorylation. For Ca^2+-dependency, we adjust the concentration of free calcium according to the Ca.EGTA constant as mentioned above, before triggering phosphorylation. […] Phosphorylations were done at 0 °C especially for inhibition by vanadate to prevent dissociation of vanadate and limit irreversible inactivation in absence of calcium.

[3] = target: T1, recombinant SERCA1a (recS1a); assay: Calcium binding at equilibrium by tryptophan fluorescence; parameters: species or system rabbit (expressed in S. cerevisiae); settings: absence of pSLN, average of three independent experiments
Procedure: as §1

[4] = target: T1, recombinant SERCA1a (recS1a); assay: Steady-state ATPase activity, enzyme-coupled assay; assay type: biochemical, rabbit (expressed in S. cerevisiae); settings: absence of pSLN; steady state, NADH-coupled assay; three independent experiments
Procedure: resuspended in a large volume of pure water and lyophilized to evaporate most of the TFA. The rinsed powder was then suspended in presence of 10 mM HCl to exchange the anionic residual TFA that may interact with the positive charges of the peptide for chloride. This suspension was lyophilized again.
Three additional cycles of – dissolving in pure water / lyophilisation – will allow to eliminate traces of TFA and to get back to a pH compatible with functional tests. For final solubilisation of SLN in detergent, powder was then dissolved in 50% TFE and an amount of detergent to reach a 100:1 mole:mole detergent:SLN ratio. Here, we used C12E8 as it is fully compatible with functional characterization of SERCA1a 23. This suspension was then lyophilized again to evaporate TFE.
Sarcolipins (Palm-SLN or SLN) were finally resuspended at 0.8 mg/mL (about 200 µM) in a 10 mM potassium phosphate buffer pH 7.4, in the presence of 2.5 mg/mL C12E8.
Expression and Purification of recombinant SERCA1a (recS1a)
The yeast expression plasmid pYeDP60-SERCA1a-BAD (WT) and expression in Saccharomyces cerevisiae was described previously 30. Yeast membranes were solubilized by DDM for subsequent purification of recombinant Ca2+-ATPase by Streptavidin affinity chromatography 31. Purified recombinant SERCA1a was recovered in a buffer containing 50 mM MOPS-Tris pH7, 100 mM KCl, 5 mM MgCl2, 2.1 mM CaCl2, 40 % glycerol (v/v) and 0.5 mg/mL DDM, together with some thrombin remaining from the elution procedure. The protein concentration in the purified fraction was in the 0.05 to 0.15 mg/mL range depending on the batch. […]
Steady-state ATPase activity measurements
Measurements were performed using classical enzyme coupled assay. We measured the rate of NADH oxidation in the presence of 0.1 mg/mL lactate deshydrogenase, 0.05 mg/mL pyruvate kinase, 1 mM phosphoenolpyruvate, 0.25 mM NADH (protocol was adapted from 22) and in the additional presence of 2 mg/mL C12E8 to limit time-dependent inactivation of the purified SERCA1a 20,23.

SERCA1a [5] = settings: deacylation with hydroxylamine; steady state; in membrane or after solubilization by C12E8; cited from earlier work
Description: Effect on the turnover is less clear as it seems to highly depend on the system used for functional characterization. […] This post-translational modification is also present in pig SLN and presumably in a few other mammals and birds, as judged from the amino-acid sequences. Among the other hundred seq ...

[6] = test system: protein phosphatase 1a (PP1a); settings: cited from earlier work
Description: (§3) Besides its various roles in protein signalling and addressing, palmitoylation can also regulate oligomerisation processes of membrane proteins. Recent work has shown that other P-type ATPases regulatory subunits like phospholamban (PLB) and phospholemman (PLM) are palmitoylated[16],[17]. Acylation of PLB and PLM is functionally relevant by having an impact on the oligomerisation of the peptides, their association with their dedicated pumps (Ca^2+-ATPase or Na+, K+-ATPase, respectively) and on their lifetime.

SERCA1a [7] = settings: cited from earlier work
Description: as §3

protein kinase A (PKA) = settings: cited from earlier work
Description: as §3

[8] = test system: recombinant purified SERCA1a (recS1a); assay: Limited proteolysis with proteinase K (SDS-PAGE); assay type: biochemical, rabbit (expressed in S. cerevisiae); settings: DDM-solubilized SR; 5 min profile similar to 60 min in native lipids
Procedure: Yeast-expressed and purified SERCA1a (recS1a) was supplemented with SLN at a mole:mole ratio of 1:10 recS1a:SLN. In absence of SLN, recS1a was supplemented with 0.07 mg/mL C12E8, an amount that corresponds to the detergent brought with chemically synthesized SLN. After 30 min at 20 °C, samples were supplemented with either 1.1 mM EGTA (Ca^2+free ~ 1 mM), or 50 mM EGTA (Ca^2+free ~ 150 nM) and 0.01 mg/mL Tg. After an additional incubation for 10 min at 20 °C, proteolysis was achieved by addition of 0.3 mg/mL proteinase K. Proteolysis was stopped by addition of 1 mM PMSF and incubation on ice for 10 min. After proteolysis arrest, samples were diluted twice in a 4 M-urea containing denaturation buffer, boiled for 60 s, and about 0.75 µg protein were loaded on a 9% SDS-PAGE prepared in the presence of 1 mM Ca^2+[32]. After electrophoresis, gels were stained with Coomassie blue.

[9] = target: T1, recombinant SERCA1a (recS1a); assay: Vanadate inhibition of phosphoenzyme formation, recS1a; assay type: biochemical, rabbit (expressed in S. cerevisiae); settings: absence of pSLN, phosphorylation 30 s at 0 °C, three independent experiments
Procedure: as §2

T1 sequence (P04191 1-994 isoform P04191-2): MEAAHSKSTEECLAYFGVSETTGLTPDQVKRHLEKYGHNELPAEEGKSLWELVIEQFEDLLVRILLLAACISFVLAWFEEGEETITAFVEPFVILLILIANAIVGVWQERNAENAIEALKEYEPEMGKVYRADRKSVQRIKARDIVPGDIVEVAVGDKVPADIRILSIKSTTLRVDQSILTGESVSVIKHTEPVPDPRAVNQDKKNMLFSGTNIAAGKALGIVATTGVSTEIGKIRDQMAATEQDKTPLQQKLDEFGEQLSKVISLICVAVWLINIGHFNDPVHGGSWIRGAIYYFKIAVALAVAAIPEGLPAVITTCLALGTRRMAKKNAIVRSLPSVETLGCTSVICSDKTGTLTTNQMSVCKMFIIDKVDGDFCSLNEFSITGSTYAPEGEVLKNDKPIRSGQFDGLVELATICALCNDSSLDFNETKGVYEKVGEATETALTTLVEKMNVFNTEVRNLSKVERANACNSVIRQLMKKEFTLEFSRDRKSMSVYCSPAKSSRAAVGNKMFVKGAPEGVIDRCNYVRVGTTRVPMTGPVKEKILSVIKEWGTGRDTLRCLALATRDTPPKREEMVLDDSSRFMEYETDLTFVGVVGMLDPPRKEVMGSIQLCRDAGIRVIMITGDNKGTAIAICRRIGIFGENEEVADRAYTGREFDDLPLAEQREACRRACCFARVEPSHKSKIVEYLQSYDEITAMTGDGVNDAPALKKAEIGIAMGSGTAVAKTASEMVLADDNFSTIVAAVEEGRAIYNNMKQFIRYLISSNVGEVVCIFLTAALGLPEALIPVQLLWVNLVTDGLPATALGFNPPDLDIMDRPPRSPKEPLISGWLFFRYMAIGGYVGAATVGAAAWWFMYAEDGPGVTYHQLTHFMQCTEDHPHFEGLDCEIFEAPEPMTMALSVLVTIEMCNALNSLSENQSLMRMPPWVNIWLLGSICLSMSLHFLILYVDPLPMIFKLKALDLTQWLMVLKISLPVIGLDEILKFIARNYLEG

Nc1ncnc2c1ncn2[C@@H]1O[C@H](COP(=O)(O)OP(=O)([O-])OP(=O)([O-])O)[C@@H](O)[C@H]1O.[Mg+2] [Mg.ATP, reference compound]
Mg-ATP1/2 (affinity for Mg.ATP), recS1a alone ([1]; absence of pSLN, calcium-deprived (2 mM EGTA), pH 7, 20 °C, DDM, 20% glycerol, three independent experiments): 3 µM and 3.00 ± 0.12 µM | nH for Mg.ATP, recS1a alone ([1]; absence of pSLN, three independent experiments): 0.99 ± 0.04 | Mg.ATP concentration sufficient to saturate the SERCA1a site ([1]; in absence of SLN, not in its presence): about 30 µM

[Ca+2] [calcium]
nH for calcium (phosphoenzyme level), recS1a alone [2]: 0.54 ± 0.02 | Ca1/2 (phosphoenzyme level), recS1a alone ([2]; phosphorylation 15 s): 0.33 ± 0.03 µM and 0.33 µM | Ca1/2 (tryptophan fluorescence), recS1a alone ([3]; at equilibrium, pH 7, 20 °C, DDM, 20% glycerol): 2.94 ± 0.30 µM and 2.9 µM | nH for calcium (tryptophan fluorescence), recS1a alone [3]: 1.67+/-0.25 | Ca1/2 (ATPase activity), recS1a alone [4]: 0.15 ± 0.08 µM

native SLN: native rabbit sarcolipin, S-palmitoylated or S-oleoylated on Cys9, co-purified with SERCA1a from SR (MERSTRELCLNFTVVLITVILIWLLVRSYQY; also: Cys9 S-palmitoylated or S-oleoylated; UniProt P42532 1-31, looked up)
effect of deacylation of native SLN on affinity for calcium and Vmax (SERCA1a [5]): no effect

PLB: phospholamban, 52 amino-acid long, with a transmembrane helix and a long cytosolic extension
effect of PLB palmitoylation (Cys 36) on PP1a affinity [6]: reduces affinity for protein phosphatase 1a (PP1a) | effect of PLB phosphorylation on SERCA1a inhibition (SERCA1a [7]): release of SERCA1a inhibition without its full dissociation from the pump | effect of PLB palmitoylation (Cys 36) on PKA affinity (protein kinase A (PKA)): increases affinity for protein kinase A (PKA)

CCCCCCCCCCCCO[C@@H]1O[C@H](CO)[C@@H](O[C@H]2O[C@H](CO)[C@@H](O)[C@H](O)[C@H]2O)[C@H](O)[C@H]1O [DDM, n-dodecyl β-D-maltopyranoside, reference compound]
effect of detergent on proteinase K proteolysis [8]: significantly accelerates proteolysis

[O]=[V]([O-])([O-])[O-] [orthovanadate, reference compound]
K1/2 (K0.5) for vanadate inhibition, recS1a alone [9]: 1.43 ± 0.08 µM | K1/2 (K0.5) for vanadate inhibition, recS1a alone ([9]; listed as vanadate): 1.43 ± 0.08 µM
